In publication PMC9283466, “In silico identification of two peptides with antibacterial activity against multidrug-resistant Staphylococcus aureus” (NPJ Biofilms and Microbiomes, 2022):
Bridge positions count the residues as written; N and C are the ends. Peptide text beside a SMILES is read from it.

Assays:
[1] = test system: MRSA USA300 cytoplasmic membrane; type: cell-based, Staphylococcus aureus; settings: for EC50 of membrane permeabilisation: USA300, 3 h
Experimental: Permeabilisation of the bacterial cytoplasmic membrane by HG2 and HG4 peptide was evaluated using the cell-impermeable DNA probe propidium iodide[14],[40]. Logarithmic-phase bacterial suspension of MRSA USA300 was prepared by diluting overnight cultures in fresh MHB (1 in 10 dilutions), incubated (3 h; 37 °C; 200 rpm), and pelleted by centrifugation (5 min; 3000×g). The bacterial cell pellet was then resuspended in sterile PBS at ~10^9 bacteria/ml. Propidium iodide (at 1 mg/ml, Sigma-Aldrich) was added to the bacterial suspension at a final concentration of 60 µM. This suspension (100 µl) was then transferred into black 96-well plates already containing 100 µl of serially diluted HG2 or HG4 peptide in PBS. Kinetics of fluorescence variations (excitation at 530 nm/emission at 590 nm) were then recorded using a microplate reader for a duration of 80 min with incubation at 37 °C. Cetyl trimethylammonium bromide (CTAB) (at 300 µM) served as positive control giving 100% permeabilisation. The permeabilisation effect of HG2 and HG4 were expressed as a percentage of total permeabilisation.

[2] = test system: S. aureus MRSA USA300 cells; experiment: Transcriptomic analysis (RNA-Seq, DESeq2); type: cell-based, Staphylococcus aureus; settings: MIC concentration for 60 min; p <0.05, abs(log2FC)> 2
Experimental: The mechanism of action and effects of HG2 and HG4 against S. aureus MRSA USA300 was investigated using transcriptomics analysis[57],[58]. […] The increased sample volume and limited treatment time of 60 min served to maintain the quality and yield of RNA. Untreated cells served as control. Cells were washed and resuspended in PBS and then RNAprotect Bacteria Reagent (QIAGEN, Hilden, Germany) was added and pelleted. This was followed by incubation in Tris-EDTA buffer containing Proteinase K and Bacterial Lysis Mix (Mutanolysin and Lysozyme) at room temperature for 10 min addition. Thereafter, RNA extraction was performed using the Qiagen RNeasy Plus Mini Kit following the manufacturer’s protocol (Qiagen, Manchester, UK). RNA was quantified using a Qubit™ fluorometer with a broad range RNA kit (Invitrogen, USA), according to the manufacturer’s instructions. All experiments were carried out in triplicates. […]
Analysis of sequencing data was carried out using the Geneious Prime® (2021.1.1) software (Biomatters Ltd, New Zealand)[59]. Firstly, all raw paired-end fastq reads passing quality check by FastQC v0.11.9 were mapped to the reference genome (Staphylococcus aureus subsp. aureus USA300_TCH1516 downloaded from the NCBI website), using Geneious RNA-Seq mapper. […]

SMILES	EC50 of membrane permeabilisation [1] [µg/mL]	permeabilisation at 1 min ([1]; at MIC concentration) [%]	number of differentially expressed genes (DEGs) [2]
CC[C@H](C)[C@H](NC(=O)[C@H](CC(C)C)NC(=O)[C@H](CC(C)C)NC(=O)[C@H](CC(C)C)NC(=O)[C@H](CCCCN)NC(=O)[C@H](CCCCN)NC(=O)[C@@H](N)CCSC)C(=O)N[C@@H](CC(C)C)C(=O)N[C@@H](Cc1ccccc1)C(=O)N[C@H]1CSSC[C@@H](C(=O)N[C@@H](CCCCN)C(=O)N[C@@H](CCCCN)C(=O)N[C@@H](C)C(=O)N2CCC[C@H]2C(N)=O)NC(=O)CNC(=O)[C@H](C)NC(=O)[C@H](CC(C)C)NC(=O)[C@H](C)NC(=O)[C@H](CC(C)C)NC(=O)[C@H](C)NC(=O)[C@H](CC(C)C)NC1=O [HG2] (H-MKKLLLILFCLALALAGCKKAP-NH2; disulfide 10-18; N-terminus assumed)	1.351 ± 0.27	80	114
CC[C@H](C)[C@H](NC(=O)[C@H](CC(C)C)NC(=O)[C@H](CC(C)C)NC(=O)[C@H](C)NC(=O)CNC(=O)CNC(=O)[C@@H](NC(=O)[C@@H](NC(=O)[C@H](CC(C)C)NC(=O)[C@H](C)NC(=O)[C@H](CC(C)C)NC(=O)CNC(=O)[C@H](CC(C)C)NC(=O)[C@@H](N)C(C)C)[C@@H](C)CC)C(C)C)C(=O)N[C@@H](CCCCN)C(=O)N[C@@H](CCCCN)C(=O)N[C@@H](CCCCN)C(=O)N[C@@H](CCC(N)=O)C(=O)N[C@@H](C)C(=O)N[C@@H](CCCCN)C(=O)N[C@@H](CO)C(N)=O [HG4] (H-VLGLALIVGGALLIKKKQAKS-NH2; N-terminus and C-terminus assumed)	13.85 ± 3.22		123
